# Test results from patent publication US6586405B2, “Non-covalent inhibitors of urokinase and blood vessel formation” (Corvas International, Inc., priority 2000, dated 2003).
# How the values were obtained:
# Assay type in all cases: biochemical
# human plasmin = molecular target: T1, human plasmin (Homo sapiens, UniProt P00747); experiment: Plasmin assay, chromogenic substrate S-2366; conditions: 30 minute incubation, HBSA buffer, plasmin 1.0 nM
# T1 construct: Purified human plasmin was obtained from Enzyme Research Laboratories, Inc; purchased Enzyme Research Laboratories, Inc
# Method: (§1) The ability of compounds of the present invention to act as selective inhibitors of urokinase catalytic activity was assessed by determining the concentration of test compound which inhibited the activity of this enzyme by 50%, (IC50), and comparing this value to that determined for all or some of the following related serine proteases: recombinant tissue plasminogen activator (rt-PA), plasmin, activated protein C, chymotrypsin, factor Xa, thrombin and trypsin.
# (§2) The buffer used for all assays was HBSA (10 mM HEPES, pH 7.5, 150 mM sodium chloride, 0.1% bovine serum albumin).
# (§3) The assay for IC50 determinations was conducted by combining in appropriate wells of a Corning microtiter plate, 50 microliters of HBSA, 50 microliters of the test compound at a specified concentration (covering a broad concentration range) diluted in HBSA (or HBSA alone for VO (uninhibited velocity) measurement), and 50 microliters of the enzyme diluted in HESA. Following a 30 minute incubation at ambient temperature, 50 microliters of the substrate at the concentrations specified below were added to the wells, yielding a final total volume of 200 microliters (about 4 times Km). The initial velocity of chromogenic substrate hydrolysis was measured by the change in absorbance at 405 nm using a Thermo Max® Kinetic Microplate Reader over a 5 minute period in which less than 5% of the added substrate was utilized. The concentration of added inhibitor which caused a 50% decrease in the initial rate of hydrolysis was defined as the IC50 value. Ki may be calculated from the IC50 value.
# Plasmin catalytic activity was determined using the chromogenic substrate, S-2366 [L-pyroglutamyl-L-prolyl-L-arginine-p-nitroaniline hydrochloride], which was obtained from DiaPharma Group. The substrate was made up in deionized water followed by dilution in HBSA prior to the assay in which the final concentration was 300 micromolar (about 2.5-times Km). Purified human plasmin was obtained from Enzyme Research Laboratories, Inc. The enzyme was diluted into HBSA prior to assay in which the final concentration was 1.0 nM.
# Human rt-PA (Activase) = molecular target: T2, Human rt-PA (Activase) (Homo sapiens, UniProt P00750); experiment: Recombinant tissue plasminogen activator (rt-PA) assay, chromogenic substrate Pefachrome t-PA; conditions: 30 minute incubation, HBSA buffer, rt-PA 1.0 nM
# T2 construct: purchased Genentech Inc
# Method: as §1, §2, §3
# rt-PA catalytic activity was determined using the substrate, Pefachrome t-PA (CH3SO2-D-hexahydrotyrosine-glycyl-L-arginine-p-nitroaniline, obtained from Pentapharm Ltd.). The substrate was made up in deionized water followed by dilution in HBSA prior to the assay in which the final concentration was 500 micromolar (about 3-times Km). Human rt-PA (Activase®) was obtained from Genentech Inc. The enzyme was reconstituted in deionized water and diluted into HBSA prior to the assay in which the final concentration was 1.0 nM.
# Urokinase (Abbokinase) = molecular target: T3, Urokinase (Abbokinase) (Homo sapiens, UniProt P00749); experiment: Urokinase assay, chromogenic substrate S-2444; conditions: Ki calculated using the IC50 value; 30 minute incubation, HBSA buffer; read-out: Ki uPA
# T3 construct: purchased Abbott Laboratories (manufacturer), obtained from Priority Pharmaceuticals
# Method: as §1, §2, §3
# Urokinase catalytic activity was determined using the chromogenic substrate […] S-2444 (L-Pyroglutamyl-glycyl-L-arginine-p-nitroaniline hydrochloride), obtained from DiaPharma Group, Inc. Urokinase (Abbokinase), manufactured by Abbott Laboratories, was obtained from Priority Pharmaceuticals and diluted to 750 pM in the HBSA assay buffer prior to use. The assay buffer was HBS (10 mM HEPES, 150 mM sodium chloride pH 7.4) with 0.1% BSA. Ki was calculated using the IC50 value.
# T2 sequence (P00750 36-562): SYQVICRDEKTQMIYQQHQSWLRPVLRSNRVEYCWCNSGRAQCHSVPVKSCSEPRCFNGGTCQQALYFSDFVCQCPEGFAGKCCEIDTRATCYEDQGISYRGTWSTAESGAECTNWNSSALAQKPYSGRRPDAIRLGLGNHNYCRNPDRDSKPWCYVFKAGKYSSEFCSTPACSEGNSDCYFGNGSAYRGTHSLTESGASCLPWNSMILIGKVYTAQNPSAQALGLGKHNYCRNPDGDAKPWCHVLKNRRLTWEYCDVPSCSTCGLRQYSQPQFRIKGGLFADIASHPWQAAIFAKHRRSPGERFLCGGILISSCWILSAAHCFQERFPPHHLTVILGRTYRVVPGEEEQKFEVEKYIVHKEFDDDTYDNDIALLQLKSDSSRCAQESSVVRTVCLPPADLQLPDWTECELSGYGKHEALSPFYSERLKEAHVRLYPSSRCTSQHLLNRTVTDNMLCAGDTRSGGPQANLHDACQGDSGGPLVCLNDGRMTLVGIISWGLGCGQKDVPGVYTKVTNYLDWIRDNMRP
# T1 sequence (P00747 581-810 limits assumed): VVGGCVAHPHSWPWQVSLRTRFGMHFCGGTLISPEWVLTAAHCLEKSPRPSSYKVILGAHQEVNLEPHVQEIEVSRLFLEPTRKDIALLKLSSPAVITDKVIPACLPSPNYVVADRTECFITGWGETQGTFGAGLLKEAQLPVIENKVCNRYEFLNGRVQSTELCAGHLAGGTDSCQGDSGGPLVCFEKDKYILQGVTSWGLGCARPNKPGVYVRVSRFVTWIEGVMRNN
# T1 sequence (P00747 97-580 partner limits assumed): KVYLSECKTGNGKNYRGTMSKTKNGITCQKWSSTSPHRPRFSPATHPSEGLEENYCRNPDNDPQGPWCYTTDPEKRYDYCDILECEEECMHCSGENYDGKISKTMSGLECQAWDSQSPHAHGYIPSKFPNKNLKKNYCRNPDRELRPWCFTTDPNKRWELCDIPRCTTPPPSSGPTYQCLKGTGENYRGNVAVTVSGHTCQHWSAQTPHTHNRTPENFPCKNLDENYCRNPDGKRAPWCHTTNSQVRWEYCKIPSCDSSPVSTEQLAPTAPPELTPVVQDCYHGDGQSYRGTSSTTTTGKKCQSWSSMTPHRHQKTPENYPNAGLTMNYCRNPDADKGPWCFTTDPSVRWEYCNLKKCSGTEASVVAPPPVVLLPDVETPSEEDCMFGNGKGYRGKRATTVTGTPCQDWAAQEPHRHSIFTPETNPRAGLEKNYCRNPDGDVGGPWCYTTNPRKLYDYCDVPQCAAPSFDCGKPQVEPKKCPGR
SMILES,IC50 (human plasmin) [nM],IC50 (Human rt-PA (Activase)) [nM],Ki (Urokinase (Abbokinase)) [nM]
N=C(N)c1ccc(CNC(=O)C2C=CCN2C(=O)C(CO)NS(=O)(=O)Cc2ccccc2)s1 (mixture of isomers) [U],250 to 2500,250 to 2500,< 100
N=C(N)Nc1ccc(CNC(=O)[C@@H]2C=CCN2C(=O)[C@@H](CO)NS(=O)(=O)Cc2ccccc2)cc1 [AV],> 2500,> 2500,< 100
CCCCS(=O)(=O)NC(CO)C(=O)N1CC2CC2C1C(=O)NCc1ccc(C(=N)N)cc1 (mixture of isomers) [AA],> 2500,> 2500,< 100
CCCCS(=O)(=O)NC(CO)C(=O)NC(C)C(=O)NCc1ccc(NC(=N)N)cc1 (stereo not drawn) [AG],> 2500,> 2500,< 100
CCCCS(=O)(=O)N[C@H](CO)C(=O)N[C@@H](C)C(=O)NCc1ccc(C(=N)N)s1 [L],> 2500,> 2500,< 100
CCCCS(=O)(=O)N[C@H](CO)C(=O)N1CCC1C(=O)NCc1ccc(C(=N)N)cc1 (stereo partly drawn) [Z],> 2500,> 2500,< 100
C[C@H](NC(=O)[C@@H](CO)NS(C)(=O)=O)C(=O)NCc1ccc(C(=N)N)cc1 [AU],> 2500,> 2500,250 to 2500
CCCCS(=O)(=O)N[C@H](CO)C(=O)N[C@@H](C)C(=O)NCc1ccc(C(=N)N)cc1 [A],> 2500,> 2500,< 100
CCCCS(=O)(=O)N[C@H](CO)C(=O)N1CC2CC2C1C(=O)NCc1ccc(C(=N)N)cc1 (stereo partly drawn) [Q],> 2500,> 2500,< 100
N=C(N)Nc1ccc(CNC(=O)Cn2cccc(NS(=O)(=O)Cc3ccccc3)c2=O)cc1 [AR],> 2500,> 2500,250 to 2500
CCCCS(=O)(=O)NC(CO)C(=O)N1CCCC1C(=O)NCc1ccc(C(=N)N)cc1 (mixture of isomers) [N],> 2500,> 2500,< 100
CCCCS(=O)(=O)NC(CO)C(=O)N1CC=CC1C(=O)NCc1ccc(C(=N)N)cc1 (mixture of isomers) [O],> 2500,> 2500,< 100
CCCCS(=O)(=O)N[C@H](CO)C(=O)N[C@@H](C)C(=O)NCCCCNC(=N)N [B],> 2500,> 2500,250 to 2500

# Results, then the compound that gave them:
IC50 (human plasmin) [nM],IC50 (Human rt-PA (Activase)) [nM],Ki (Urokinase (Abbokinase)) [nM],SMILES
> 2500,> 2500,–,C[C@H](NC(=O)[C@@H](CO)NS(=O)(=O)Cc1ccccc1)C(=O)NCc1ccc(C(=N)N)cc1 [AJ]
250 to 2500,> 2500,< 100,N=C(N)c1ccc(CNC(=O)C2C3CC3CN2C(=O)C(CO)NS(=O)(=O)Cc2ccccc2)cc1 (stereo not drawn) [AD]
250 to 2500,> 2500,< 100,N=C(N)c1ccc(CNC(=O)[C@@H]2C3CC3CN2C(=O)[C@@H](CO)NS(=O)(=O)Cc2ccccc2)cc1 (stereo partly drawn) [T]
> 2500,> 2500,100 to 250,C[C@H](NC(=O)[C@@H](CO)NS(=O)(=O)c1ccc2ccccc2c1)C(=O)NCc1ccc(C(=N)N)cc1 [AI]
> 2500,> 2500,< 100,C[C@H](NC(=O)[C@@H](C)NS(=O)(=O)Cc1ccccc1)C(=O)NCc1ccc(C(=N)N)cc1 [AK]
> 2500,> 2500,< 100,C[C@H](NC(=O)[C@@H](CO)NS(=O)(=O)Cc1ccccc1)C(=O)NCc1ccc(NC(=N)NC(=O)OC(C)(C)C)cc1 [AM]
> 2500,> 2500,< 100,C=CC[C@H](NC(=O)[C@@H](CO)NS(=O)(=O)Cc1ccccc1)C(=O)NCc1ccc(C(=N)N)cc1 [AL]
> 2500,> 2500,< 100,N=C(N)c1ccc(CNC(=O)[C@@H]2CCN2C(=O)[C@@H](CO)NS(=O)(=O)Cc2ccccc2)cc1 [R]
> 2500,> 2500,< 100,C[C@@H](NC(=O)[C@@H](CO)NS(=O)(=O)c1cccc2ccccc12)C(=O)NCc1ccc(C(=N)N)cc1 [AP]
250 to 2500,> 2500,< 100,N=C(N)c1ccc(CNC(=O)[C@@H]2C=CCN2C(=O)[C@@H](CO)NS(=O)(=O)Cc2ccccc2)cc1 [K]
> 2500,> 2500,< 100,C[C@H](NC(=O)[C@@H](CO)NS(=O)(=O)Cc1ccccc1)C(=O)NCc1ccc(NC(=N)N)cc1 [AN]
> 2500,> 2500,< 100,CCC[C@H](NC(=O)[C@@H](CO)NS(=O)(=O)Cc1ccccc1)C(=O)NCc1ccc(C(=N)N)cc1 [AS]
> 2500,> 2500,100 to 250,N=C(N)c1ccc(CNC(=O)[C@@H]2CCN2C(=O)[C@@H](CO)NS(=O)(=O)CCc2ccccc2)cc1 [S]
250 to 2500,> 2500,–,N=C(N)c1ccc(CNC(=O)[C@@H]2CCCN2C(=O)[C@@H](CO)NS(=O)(=O)Cc2ccccc2)cc1 [J]
> 2500,250 to 2500,< 100,C[C@H](NC(=O)[C@@H](CO)NS(=O)(=O)Cc1ccccc1)C(=O)NCc1ccc(C(=N)N)s1 [AH]
–,> 2500,< 100,N=C(N)c1ccc(CNC(=O)[C@@H]2C=CCN2C(=O)[C@@H](CO)NS(=O)(=O)CCc2ccccc2)cc1 [F]
> 2500,> 2500,250 to 2500,C[C@H](NC(=O)[C@@H](CO)NS(=O)(=O)Cc1ccccc1)C(=O)NCc1ccc(NC(=N)N)s1 [AW]
> 2500,> 2500,< 100,CC[C@H](NC(=O)[C@@H](CO)NS(=O)(=O)Cc1ccccc1)C(=O)NCc1ccc(C(=N)N)cc1 [AT]
> 2500,> 2500,100 to 250,C[C@H](NC(=O)[C@@H](CO)NS(=O)(=O)Cc1ccccc1)C(=O)NCc1ccc(C(=N)N)cn1 [AO]
